One substance from paper PMC11360180, “Enhancement of Antimicrobial Function by L/D-Lysine Substitution on a Novel Broad-Spectrum Antimicrobial Peptide, Phylloseptin-TO2: A Structure-Related Activity Research Study” (Pharmaceutics, 2024) can be followed below.

One data set deals with S. aureus (ATCC 6538). In kind it is cell-based, Staphylococcus aureus. Conditions: ATCC 6538, 24 h. An excerpt: (§1) Seven microorganism strains were used to preliminarily evaluate the antimicrobial activity of PSTO2 and its analogues, including Staphylococcus aureus (S. aureus) (ATCC® 6538), methicillin-resistant Staphylococcus aureus (MRSA) (NCTC® 12493), Enterococcus faecalis (E. faecalis) (NCTC® 12697), E. coli (ATCC® 8739), Klebsiella pneumonia (K. pneumonia) (ATCC® 43816), Pseudomonas aeruginosa (P. aeruginosa) (ATCC® CRM 9027), Acinetobacter baumanni (A. baumanni) (BAA® 747), and Candida albicans (C. albicans) (ATCC® 10231). In this study, the strains were cultured in Mueller–Hinton broth (MHB), nutrient broth (NB), and yeast–peptone–dextrose broth (YPD-B) correspondingly at 37 °C, with shaking at 120 rpm. Each peptide was dissolved from 128 μM to 1 μM and mixed with the bacterium at 5 × 10^5 CFU/mL. In this process, bacteria with culture medium were used as the growth control group; PBS was set up as the vehicle control group; sterile culture medium was used as the blank control group; and Norfloxacin at a concentration of 2 mg/mL and amphotericin B at a concentration of 1 mg/mL were set up as the positive control group for bacteria and fungi, respectively.
(§2) After being incubated for 24 h, a Synergy HT plate reader (Bio-Tek, Shoreline, WA, USA) was used to detect the absorbance of each well in the 96-well plate at λ = 550 nm. The concentration at which no visible turbidity could be recorded was the MIC value. Beginning from the MIC value, 10 µL of solution in each clear well was dropped on the sterile agar plates. The plate was checked the next day for colony formation, and the lowest concentration at which no colony growing was recorded as an MBC value.

For another data set, the system named is A. baumannii (BAA 747). In kind it is cell-based, Acinetobacter baumanni. Conditions: BAA 747, 24 h.
Excerpt: as §1, §2

The subject of data set [1] is K. pneumonia (ATCC 43816). Type of data set: cell-based, Klebsiella pneumonia. Conditions: ATCC 43816, 24 h.
Excerpt: as §1, §2

The test system of data set [2] is P. aeruginosa (ATCC 9027). Type of data set: cell-based, Pseudomonas aeruginosa. Conditions: ATCC 9027, 24 h.
Excerpt: as §1, §2

A further data set relates to C. albicans. In kind it is cell-based, Candida albicans. Conditions: 24 h.
Excerpt: as §1, §2

Data set [3] concerns MRSA (ATCC 12493) biofilm. In kind it is cell-based, methicillin-resistant Staphylococcus aureus. Conditions: ATCC 12493, 24 h. The method, then:
To test the anti-biofilm ability of PSTO2 and its analogues, three types of microorganisms (S. aureus ATCC® 6538, E. coli ATCC® 8739, and MRSA NCTC® 12493) were chosen. Tryptic soy broth (TSB) and Lysogeny broth (LB) were used to culture microorganisms. The peptide was dissolved in an autoclaved PBS solution and diluted into concentrations ranging from 51,200 µM to 100 µM. One µL of peptide solution of each concentration was added into a 96-well plate with 100 µL bacterium at 5 × 10^5 CFU/mL. The plate was incubated at 37 °C for 24 h, with shaking at 200 rpm. After overnight incubation, the planktonic bacteria were washed up. Then, 100 µL of methanol was used to fix the biofilms onto the bottom, and 100 µL of 0.1% crystal violet solution (Sigma-Aldrich, Gillingham, UK) was added to each well to stain the biofilms. After drying, 160 µL of acetic acid (30% in deionised water, Sigma-Aldrich, UK) was added to each well to dissolve the shaded parts. The absorbance was detected with the Synergy HT plate reader at λ = 595 nm.
For the MBEC assay, 100 µL of the bacterium of 5 × 10^5 CFU/mL was transferred into an empty 96-well plate, and the plate was incubated at 37 °C for 24 h to obtain the biofilms primarily. Then, the peptide solution from 512 µM to 1 µM was transferred into a corresponding well, followed by 24 h incubation at 37 °C, with shaking at 200 rpm. After this, the plate was handled using the identical method to the plate in the MBIC assay, and the absorbance of each well was detected with the Synergy HT plate reader at λ = 595 nm. The minimum concentration at which the peptide can eradicate the existing biofilm was recorded as the MBEC value.

Another data set relates to MCF-7. In kind it is cell-based, human. Conditions: 24 h. As to the method:
(§3) The percentage of cancer cell survival after being treated with peptides was assessed with 3-(4,5-dimethylthiazol-2-yl-)-2,5-diphenyltetrazolium bromide (MTT). The principle is the reduction process of the yellow tetrazolium to DMSO-soluble formazan crystals caused by the metabolic capability of living cells. All the cancerous and normal cells were obtained from the American Type Culture Collection (Rockville, VA, USA). Human lung cancer NCI-H838 and NCI-H460 were cultured in Roswell Park Memorial Institute (RPMI)-1640 medium (Gibco, Paisley, UK) and mixed with 10% (v/v) fetal bovine serum (FBS) (Gibco, Campinas, Brazil) and 1% penicillin–streptomycin (Gibco, Grand Island, NY, USA) 89/10/1 v/v/v). U251MG and MCF-7 were cultured in Dulbecco’s Modified Eagle medium (DMEM) (Gibco, Paisley, UK) and mixed with 10% FBS and 1% penicillin–streptomycin. HCT 116 was cultured in McCoy’s 5A (modified) medium (Gibco, Paisley, UK) and mixed with 10% FBS and 1% penicillin–streptomycin. MRC-5 and HaCat were cultured in Minimum Essential Medium (MEM) (Gibco, Paisley, UK) and mixed with 10% FBS and 1% penicillin–streptomycin. Cells were cultured and seeded in a 96-well plate at a density of 8000 cells/well with the corresponding medium and incubated for 24 h at 37 °C with 5% CO2. After 24 h of incubation, the cells were starved with a serum-free medium for 4 h at 37 °C. Then, the cells were incubated with different concentrations of peptide solution in a serum-free medium from 1 nM to 100 µM at 37 °C for 24 h. Meanwhile, triton X-100 (0.1%) (Sigma-Aldrich, St. Louis, MO, USA) and PBS were chosen as positive and negative controls. After 10 µL of MTT (5 mg/mL) was added to each well away from light and incubated at 37 °C for 2 h, the formazan generated by mitochondria was dissolved with DMSO. The absorbance was detected at a wavelength of 570 nm by a Synergy HT plate reader (Bio-Tek, Shoreline, WA, USA).

The test system of another data set is NCI-H460. In kind it is cell-based, human. Conditions: 24 h. As to the method: as §3
The test system of another data set is NCI-H838. In kind it is cell-based, human. Conditions: 24 h. As to the method: as §3
In another data set the test system is U251MG. Type of data set: cell-based, human. Conditions: 24 h. As to the method:
as §3

Another data set concerns HaCat. In kind it is cell-based. Conditions: 24 h. The method, then: as §3
In a further data set the test system is MRC-5. In kind it is cell-based. Conditions: 24 h. As to the method: as §3
In another data set the test system is horse red blood cells. Type of data set: cell-based. As to the method: To assess the haemolytic activity of PSTO2 and its analogues, 2% fresh defibrinated horse red blood cells (TCS Biosciences Ltd., Buckingham, UK) were acquired after being washed and resuspended in sterile PBS. Each peptide was dissolved in PBS to prepare solutions with concentrations ranging from 2 µM to 1024 µM. Subsequently, 100 µL of each peptide solution was mixed with 100 µL of the red blood cell suspension. The red blood cells treated with 1% triton X-100 and sterile PBS in equivalent volumes were set up as the positive and negative control groups, respectively. Then, all the samples were incubated at 37 °C for 2 h. Thereafter, the samples were centrifuged at 900× g for 10 min. Finally, 100 µL of supernatant of each sample was transferred into a 96-well plate, and the absorbance was recorded by a Synergy HT plate reader (Bio-Tek, Shoreline, WA, USA) at a wavelength of 570. The following equation was used to calculate haemolysis activity:Haemolysis activity = (Sample absorbance − Ab)/(Ap − Ab) × 100% where Ab refers to the mean value of absorbance of the negative control (incubated with PBS only), and Ap refers to the mean absorbance value of the positive control (incubated with triton X-100).

Where no end group is shown, it is not given here.

A word on the MIC: it is the smallest concentration in the dilution series that meets the test's criterion for growth inhibition. Broadly, the IC50 is the concentration at which inhibition is half-maximal. “FLSLIPHAISAVSALAKHL-NH2 [PSTO2, phylloseptin-TO2]”: the MBC was 4 µM in the data set on S. aureus (ATCC 6538); above 128 µM in the data set on A. baumannii (BAA 747); 128 µM in data set [1]; above 128 µM in data set [2]; 128 µM in the data set on C. albicans. In addition, the MIC with A. baumannii (BAA 747) was above 128 µM; in data set [1] it was 64 µM; in data set [2] it was above 128 µM; in the data set with C. albicans it was 32 µM. The MBIC in data set [3] is 4 µM. Further, the IC50 in the data set on MCF-7 was 23.1 µM; in the data set with NCI-H460, 78.3 µM; with NCI-H838 it was 85.8 µM; in the data set on U251MG it was 84 µM; in the data set on HaCat, 70.58 µM; in the data set on MRC-5, 73.22 µM. In addition, the HC10 in the data set on horse red blood cells was determined as 21.78.
